Numbers after ± are expanded uncertainties.
Details: Liquid; for mass density: 298.15 K, 101.33 kPa

mass density [kg/m3] | Normal boiling temperature [°C] | SMILES
785.1 ± 5 | 78.31 ± 0.03 | CCO [ethanol]
786.5 ± 5 | 64.52 ± 0.03 | CO [methanol]
